Measurements published in ChEMBL document CHEMBL5233248, “Resveratrol - A comprehensive review of recent advances in anticancer drug design and development” (Eur J Med Chem, 2020).
Residues, ends and D or L forms follow the SMILES beside them. *: point of attachment. X1 = Oc1cc(O)cc(/C=C/c2ccc(O*)cc2)c1

What was measured:
HepG2 = assay: Anticancer activity against human HepG2 cells; format: functional, cell-based
HeLa = assay: Anticancer activity against human HeLa cells; format: functional, cell-based
A549 [1] = assay: Anticancer activity against human A549 cells; format: functional, cell-based
HCT-116 = assay: Anticancer activity against human HCT-116 assessed as cell growth inhibition incubated for 72 hrs by MTT assay; format: functional, cell-based; settings: HCT-116, 72 h
MCF7 = assay: Anticancer activity against human MCF7 assessed as cell growth inhibition incubated for 72 hrs by MTT assay; format: functional, cell-based; settings: MCF7, 72 h
NCI-H460 = assay: Anticancer activity against human NCI-H460 assessed as cell growth inhibition incubated for 72 hrs by MTT assay; format: functional, cell-based; settings: NCI-H460, 72 h
CCRF-CEM [2] = assay: Anticancer activity against human CEM cells assessed as cell growth inhibition incubated for 48 hrs by Tryphan blue assay; format: functional, cell-based
A549 [3] = assay: Anticancer activity against human A549 cells assessed as cell growth inhibition incubated for 48 hrs by Tryphan blue assay; format: functional, cell-based; settings: A549, 48 h
L1210 = assay: Anticancer activity against mouse L1210 cells assessed as cell growth inhibition incubated for 48 hrs by MTT assay; format: functional, cell-based; settings: L1210, 48 h
CCRF-CEM [4] = assay: Anticancer activity against human CEM cells assessed as cell growth inhibition incubated for 48 hrs by MTT assay; format: functional, cell-based
[5] = Potency index, ratio of test compound IC50 to Melphalan IC50 for antiproliferative activity against […] L1210 cells; format: functional
[6] = Anticancer activity against human Molt 4/C8 cells assessed as cell growth inhibition incubated for 48 hrs by MTT assay; format: functional, cell-based; settings: Molt4/C8, 48 h

SMILES: COc1ccc(/C(=C/c2cc(C(F)(F)F)ccc2Cl)C(=O)O)cc1
- IC50 (HepG2): 7.49 µM
- IC50 (HeLa): 4.79 µM
- IC50 (A549 [1]): 3.77 µM

SMILES: CC(C)C[C@H](NC(=O)[C@H](CCCCN)NC(=O)[C@H](CO)NC(=O)[C@@H](N)CC(C)C)C(=O)Oc1ccc(/C=C/c2cc(O)cc(O)c2)cc1 (H-LSKL-X1)
- IC50 (HCT-116): 78 µM
- IC50 (MCF7): 58 µM
- IC50 (NCI-H460): 41 µM

SMILES: COc1cc(/C=C/c2ccc(C)cc2)cc(OC)c1OC
- IC50 (CCRF-CEM [2]): 2.6 µM
- IC50 (A549 [3]): 2.6 µM
- IC50 (L1210): 1.2 µM
- IC50 (CCRF-CEM [4]): 3.1 µM
- Ratio IC50 [5]: 2
- IC50 [6]: 1.4 µM
